In PMC6154642 (Molecules : A Journal of Synthetic Chemistry and Natural …, 2017):
Like-named read-outs stand apart in the source and are kept apart here.

Columns and labels:
[1] = test system: bcl-2 G-quadruplex DNA (bcl-2 G4 DNA) (DNA, G4) CGGGCGCGGGAGGAAGGGGGCGGGAGC; assay: UV-vis absorption titration; settings: K+ (KCl, concentration not given); Tris-HCl pH 7.2; fixed 20 μM compound (60 μM in Figure 3 legend); intrinsic binding constant
[2] = test system: human hepatocarcinoma SMMC7721 cells; assay: MTT assay, growth inhibition of SMMC7721 cells; assay type: cell-based
Protocol: (§1) Human cancer cell lines, human lung adenocarcinoma A549 cells, human hepatocarcinoma SMMC7721 cells, human colorectal carcinoma SW620 cells and HaCaT cells were purchased from American Type Culture Collection (ATCC, Manassas, VA, USA). All cell lines were maintained in Dulbecco’s Modified Eagle Medium (DMEM) media supplemented with fetal bovine serum (10%), penicillin (100 units/mL), and streptomycin (50 units/mL) at 37 °C in a CO2 incubator (95% relative humidity, 5% CO2).
(§2) Cell viability was confirmed by measuring the ability of cells to transform 3-(4,5-dimethylthia-zol-2-yl)-2,5-diphenyltetrazolium bromide (MTT) to a purple formazan dye. Cells were seeded in 96-well tissue culture plates (3 × 10^3 cells per well) for 24 h. The cells were then incubated with the tested compounds at different concentrations for 72 h. After incubation, 20 µL per well of MTT solution (5 mg/mL in phosphate buffered saline, PBS) was added, followed by incubation for a further 5 h. The medium was aspirated and replaced with 150 µL/well of DMSO to dissolve the formazan salt formed. The colour intensity, which reflects the cell growth condition, was measured at 570 nm using a microplate spectrophotometer (SpectroAmaxTM250, BioTek Instruments, Inc., Winooski, VT, USA).

bcl-2 G-quadruplex DNA = assay: Electronic absorption titration with bcl-2 G-quadruplex DNA; assay type: binding
Protocol: (§3) All reagents were purchased from commercial suppliers and used without further purification. Solvents were dried and purified by conventional methods prior to use. Distilled water was used in all experiments. Bcl-2 G-quadruplex DNA (5′-[…]-3′) and 5′-FAM-bcl-2-TAMRA-3′ were purchased from Sangon Biotech Co., Ltd. (Shanghai, China) Bcl-2 G-quadruplex DNA formed a G-quadruplex conformation as literature by renaturation for 24 h at 4 °C, after denaturation for 5 min at 90 °C [29]. All aqueous solutions were prepared with doubly distilled water. The Tris-HCl buffer consisting of Tris and KCl, and the pH value was adjusted to 7.2 by HCl solution, which was applied to UV titration, Fluorescence emission titrations.
Electronic absorption spectra were recorded on a Shimadzu UV-2550 spectrophotometer using 1 cm path length quartz cuvettes (3 mL). The absorption titration of the target complex in Tris-HCl buffer was performed by using a fixed complex concentration to which increments of the DNA stock solution were added. The concentration of the complex solution was 20 μM and bcl-2 G4 DNA was added by degrees. Complex-DNA solutions were allowed to incubate for 3 min before the absorption spectra were recorded.

[3] = test system: human lung adenocarcinoma A549 cells; assay: MTT assay, growth inhibition of A549 cells; assay type: cell-based
Protocol: as §1, §2

[4] = test system: 5'-FAM-bcl-2-TAMRA-3' (DNA, G4) CGGGCGCGGGAGGAAGGGGGCGGGAGC; assay: FRET melting; settings: Tris-HCl buffer; 6.0 μM compound (2.4 °C at 3.0 μM); 1 μM DNA (0.2 μM in Figure 4 legend)
A549 cells = assay: Flow cytometric analysis of cell cycle arrest (PI staining); assay type: cell-based, human; settings: 20 μM, 24 h, versus control (55.75%)
Protocol: Cells were seeded in six-well tissue culture plates (1 × 10^5 cells per well), and the cell cycle arrest was analyzed by flow cytometry as previously described. […] The fixed cells were washed with PBS and stained with propidium iodide (PI) for 15 min in the dark, then the cell cycle arrest was analyzed with an Epics XL-MCL flow cytometer (Beckman Coulter, Miami, FL, USA).

HaCaT cells = assay: MTT assay, normal HaCaT cells; assay type: cell-based, human; settings: 72 h; for IC50: normal cells
Protocol: as §1, §2

[5] = test system: human colorectal carcinoma SW620 cells; assay: MTT assay, growth inhibition of SW620 cells; assay type: cell-based
Protocol: as §1, §2

[6] = test system: bcl-2 G-quadruplex DNA (bcl-2 G4 DNA) (DNA, G4) CGGGCGCGGGAGGAAGGGGGCGGGAGC; assay: ethidium bromide displacement fluorescence; settings: K+ (KCl, concentration not given); Tris-HCl KCl pH 7.2; EB 16 μM, DNA 2 μM; I/I0 0.83 at 20.89 μM compound
bcl-2 G4 DNA [7] = assay: FRET melting assay; assay type: binding
Protocol: The fluorescent labeled oligonucleotide, bcl-2 G-quadruplex DNA (5′-FAM-[…]-TAMRA-3′, FAM: carboxyfluorescein, TAMRA: 6-carboxy tetramethylrhodamine) used as the FRET probe was diluted in TrisHCl buffer and then annealed by being heated to 90 °C for 5 min, followed by slowly cooling to room temperature. Ds26 duplex DNA ([…]) was competitive binders to evaluate the selective binding ability of 1 with bcl-2 G4 DNA. Fluorescence melting curves were determined with a Bio-RadiQ5 realtime PCR detection system (Bio-Rad, Berkeley, CA, USA), by using a total reaction volume of […], with labeled oligonucleotide (1 μM) and different concentrations of complex in Tris-HCl buffer. A constant temperature was maintained for 30 s prior to each reading to ensure a stable value. Final analysis of the data was carried out by using Origin7.5 (Origin Lab, Northampton, MA, USA).

bcl-2 G4 DNA [8] = assay: Fluorescence quenching of EB + bcl-2 G4 DNA system; assay type: binding; settings: [1] = 20.89 μM, [EB] = 16 μM, [DNA] = 2 μM, excitation 350 nm, Tris-HCl KCl buffer pH 7.2
Protocol: as §3
Fluorescence spectroscopy measurements were performed on a RF-5301 fluorescence spectrophotometer using a 1 cm path length quartz cell. Fluorescence quenching of the EB + bcl-2 G4 DNA system can be used for a compound having an affinity to DNA in spite of its binding mode, and only measures the ability of the compound to affect the EB fluorescence intensities in the EB + bcl-2 G4 DNA system. The titration processes were repeated until there was no apparent change in the spectra for at least three titrations, indicating the achievement of the binding saturation.

IC50 ([2]; Homo sapiens, SMMC-7721, 72 h) | IC50 ([3]; Homo sapiens, A549, 72 h) | IC50 ([5]; Homo sapiens, SW-620, 72 h) | SMILES | IC50 (HaCaT cells; Homo sapiens, HaCaT) | also measured
17.5 ± 1.84 µM | 15 ± 1.01 µM | 26.5 ± 0.59 µM | O=[N+]([O-])c1cccc(-c2nc3c4cccnc4c4ncccc4c3[nH]2)c1 [Compound 1] | 27.3 ± 1.49 µM | Kb [1]: ~ 8.7 × 10^7 M^-1; hyperchromism at the IL absorption band (bcl-2 G-quadruplex DNA; Tris-HCl buffer pH 7.2, about 273 nm, on addition of bcl-2 G-quadruplex DNA): about 14.1%; bathochromic shift Δλ at the IL absorption band (bcl-2 G-quadruplex DNA; Tris-HCl buffer pH 7.2, on addition of bcl-2 G-quadruplex DNA): 2.1 nm; ΔTm [4]: ~ 11 °C; ratio of G1-phase higher than that of the control (A549 cells): about 12%; toxicity in normal cells (HaCaT cells): low toxicity in normal cells; binding [6]: weak; ΔTm of bcl-2 G4 DNA (bcl-2 G4 DNA [7]; 3.0 μM compound): about 2.4 °C; ΔTm of bcl-2 G4 DNA (bcl-2 G4 DNA [7]; 6.0 μM compound): about 11 °C; relative fluorescence intensity (I/I0) of EB-DNA (bcl-2 G4 DNA [8]): about 0.83
12.9 ± 0.51 µM | 13.8 ± 0.53 µM | 27.2 ± 0.53 µM | FC(F)(F)c1cccc(-c2nc3c4cccnc4c4ncccc4c3[nH]2)c1 [Compound 2] | 17.5 ± 0.58 µM | 
24.2 ± 2.28 µM | 3 ± 0.14 µM | 16.5 ± 0.28 µM | Oc1cccc(-c2nc3c4cccnc4c4ncccc4c3[nH]2)c1 [Compound 4] | 13.9 ± 0.64 µM | 
12.6 ± 0.35 µM | 14.3 ± 0.21 µM | 16 ± 0.29 µM | Clc1cccc(-c2nc3c4cccnc4c4ncccc4c3[nH]2)c1 [Compound 3] | 13.4 ± 0.56 µM | 
 |  |  | N.N.[Cl][Pt][Cl] [cis-platin, reference compound] |  | IC50 ([2]; 72 h, read-out: IC50 (μM) SMMC-7721): 11.7 ± 1.45 µM; IC50 ([3]; 72 h): 32 ± 4.66 µM; IC50 (HaCaT cells): 18.5 ± 1.64 µM; IC50 ([5]; 72 h): 6.29 ± 0.17 µM
